Results taken from patent US20090175905A1, “TRANSFECTION REAGENT AND METHOD FOR ENHANCING TRANSFECTION EFFICIENCY” (National Taiwan University of Science and Technology, priority 2008, published 2009).
Like-named read-outs stand apart in the source and are kept apart here.

Assays:
[1] = tested on: Chinese hamster ovary (CHO) cells; experiment: In vitro transfection of CHO cells with different lipid-based vectors plus disaccharides, GFP-positive percentage; format: cell-based; settings: 120 mM disaccharide; DOTAP, DOTAP/Chol, DOTAP/DOPE, DC-Chol/DOPE or LPD vector
Source text: FIGS. 3A and 3B present the effects of disaccharides on the transgene expression of cultured Chinese hamster ovary (CHO) cells subjected to an in vitro transfection of DNA with a transfection reagent containing different lipid-based vectors plus different disaccharides. The x-axis in FIGS. 3A and 3B represents the lipid composition, and the y-axis represents the GFP-positive percentage of the transfected CHO cells, which is used as an indicator for transfection efficiency. In the experiments shown in FIGS. 3A and 3B, DOTAP, DOTAP/Chol, DOTAP/DOPE, DC-Chol/DOPE or LPD applied as a vector is incorporated into a pEGFP-C1 plasmid-containing transfection reagent. Thereafter, 120 mM of various disaccharides is incorporated into the transfection reagent, and in vitro cell transfection is performed followed by detecting the cell percentage of GFP expression.

[2] = tested on: CHO cells
Source text: (§3) FIG. 5 presents the effects of disaccharides on the cellular cytotoxicity of the in vitro cultured CHO cells transfected with transfection reagents containing lipid-based carriers.

[3] = tested on: Chinese hamster ovary (CHO) cells; experiment: In vitro transfection of CHO cells with pEGFP-C1 plasmid and DOTAP liposomes plus disaccharides, GFP by flow cytometer; format: cell-based; settings: DOTAP liposomes; for effect on transfection efficiency: appropriate amount of disaccharide
Source text: FIG. 2 present the effects of disaccharides on the transgene expression of cultured Chinese hamster ovary (CHO) cells subjected to an in vitro transfection of DNA with a transfection reagent containing DOTAP and various disaccharides. The x-axis in FIG. 2 refers to the disaccharide concentration in the transfection reagent, and the y-axis in FIG. 2 represents the GFP (green fluorescent protein)-positive percentage of the transfected CHO cells measured by a flow cytometer. The GFP-positive percentage of the CHO cells is used as an indicator of transfection efficiency. In the experiments shown in FIG. 2, various concentrations of cellobiose, lactose, sucrose, trehalose and maltose are respectively incorporated into a transfection reagent containing pEGFP-C1 plasmid and DOTAP liposomes, and in vitro transfections are performed with the transfection reagents containing different disaccharides. The GFP-positive percentage of CHO cells is then detected for each transfection reagent sample. […] In other words, the incorporation of a disaccharide into the transfection reagent affects the transfection efficiency. Moreover, the changes in transfection efficiency are related to the type and the concentration of the disaccharide in the transfection reagent. […] More particularly, the transfection efficiency increases from 28% to more than 40% at 180 mM of lactose, sucrose or trehalose in a transfection reagent. The transfection efficiency is doubled when 120 mM of cellobiose is incorporated into a transfection reagent.

[4] = tested on: mouse muscles; experiment: In vivo transfection of muscles by direct intramuscular injection of naked plasmid plus disaccharides, luciferase luminescence; settings: for luminescent intensity (RLU per mg of muscular tissue protein) versus control group without disaccharides: 10 mM disaccharide
Method: The following experiments are conducted using naked nucleic acid delivery system for directly transfecting plasmid DNA into the cells of animals, and additional viral or non-viral vector is precluded. The transfection reagent is incorporated with various concentrations of disaccharides as an enhancer, and the effects of disaccharides in the naked nucleic acid delivery system on the cell transfection are observed.
FIG. 9 presents the effects of various disaccharides on the transgene expression of mouse muscles after direct intramuscular injection of naked plasmid. The transfection procedures in these experiments are identical to those described previously in experiment 3. The major differences between the two experiments are the vector applied and the method of transfection as well as the administration route into the body of the […]. The x-axis in FIG. 9 represents the types of disaccharides, and the y-axis represents the luminescent intensity, measured by a luminometer and expressed as relative light unit (RLU) per mg of muscular tissue protein, wherein the luminescent intensity is used as an indicator to evaluate the transfection efficiency.
FIG. 10 presents the effects of trehalose concentrations on the transgene expression of mouse muscles after direct intramuscular injection of naked plasmid. The x-axis in FIG. 10 represents the concentrations of trehalose in the transfection reagent, and the y-axis represents the luminescent intensity, measured by a luminometer and expressed as relative light unit (RLU) per mg of muscular tissue protein. The luminescent intensity is used as an indicator to evaluate transfection efficiency.
[…] presents the effects of gene dosage on the transgene expression of mouse muscles in the presence of trehalose after direct intramuscular injection of naked plasmid. The x-axis in FIG. 11 represents the amount of DNA plasmid, and the y-axis represents the luminescent intensity, measured by a luminometer and expressed as relative light unit (RLU) per mg of muscular tissue protein, wherein the luminescent intensity is used as an indicator to evaluate the transfection efficiency.
FIG. 12 presents the effects of the trehalose on the durations of transgene expression of mouse muscles after direct intramuscular injection of naked plasmid. The x-axis in FIG. 12 represents the days after the intramuscular injection, and the y-axis represents the luminescent intensity, measured by a luminometer and expressed as relative light unit (RLU) per mg of muscular tissue protein, wherein the luminescent intensity is used as an indicator to evaluate the transfection efficiency of gWiz-luciferase plasmid. […] In other words, trehalose might extend the durations of nucleic acid remaining inside the cells, and therefore prolonged the durations of transgene expression.

[5] = tested on: lung tissues; experiment: In vivo transfection by tail vein injection of gWiz-luciferase plasmid with lipid-based vectors plus disaccharides, luciferase activity in lung; set-up: species or system mouse; settings: for effect on transfection efficiency (luminescent intensity, lung): DOTAP, DOTAP/Chol or LPD vector, i.v.
Method: FIG. 4A presents the effects of disaccharides on the transgene expression after intravenous injection of DOTAP-based vectors with various disaccharides by way of mouse tail vein. Various concentrations of […] and […] are respectively incorporated into the transfection reagent containing the gWiz-luciferase plasmid and DOTAP liposomes. The transfection reagent is administered via intravenous injection through the tail vein of a 4-6 weeks old ICR (CD-1) […]. The […] is sacrificed 24 hour after the intravenous injection, and the activity of luciferase in the lung tissues of the […] is observed. The x-axis in FIG. 4A represents the disaccharide concentration in the tranfection reagent, and the y-axis in FIG. 4 represents the luminescent intensity, measured by a luminometer and expressed as relative light unit (RLU) per mg of lung tissue protein. The luminescent intensity is used as an indicator of transfection efficiency. […] Accordingly, cellobiose and trehalose can improve the efficiency of cell transfection in vivo, and the transfection efficiency increases as the concentration of the disaccharide increases. FIG. 4B presents the effects of disaccharides on the transgene expression after intravenous injection of different lipid-based vectors with various disaccharides by way of mouse tail vein. DOTAP, DOTAP/chol and LPD are respectively added as a vector into the tranfection reagent containing gWiz-luciferase plasmid. A concentration of 330 mM cellobiose or trehalsoe is incorporated into the transfection reagent. The transfection reagent is then intravenously injected into the animal for cell transfection. The x-axis in FIG. 4B represents the type of the lipid-based vector, and the y-axis in FIG. 4B represents the luminescent intensity, measured by a luminometer and expressed as relative light unit (RLU) per mg of lung tissue protein.

[6] = tested on: KB; experiment: DNA-PEI transfection with trehalose, GFP expression percentage, KB; format: cell-based; settings: 20 mM trehalose
Source text: (§1) FIG. 6 presents the effects of disaccharides on the transfection efficiency of in vitro cultured CHO cells that are transfected with transfection reagents containing PEI and different disaccharides. The x-axis in FIG. 6 represents the concentrations of different disaccharide in the transfection reagent, and the y-axis represents the GFP expression percentage of the transfected CHO cells detected by a flow cytometer. The GFP expression percentage of the transfected CHO cells is used as an indicator of transfection efficiency. […] The effect of disaccharides in the transfection reagent on transfection efficiency is then analyzed. […] In other words, the cell transfection efficiency is enhanced.
(§2) FIGS. 7A and & 7B show the optimal trehalose concentrations for enhancing the transfection expression mediated by DNA-PEI complexes in different cell lines. The x-axis in FIGS. 7A and 7B […] represents the concentrations of trehalose in the transfection reagent, and the y-axis represents the GFP expression percentage of the cells as an indicator of transfection efficiency The transfection procedures in these experiments of different cell lines are identical to those described previously for CHO cells in experiment 5. […] Moreover, the extents of enhancement on the transfection efficiency depend on the cell lines. […]

[7] = tested on: MDA-MB-231; experiment: DNA-PEI transfection with trehalose, GFP expression percentage, MDA-MB-231; format: cell-based; settings: 20 mM trehalose, MDA-MD-231
Source text: as §1, §2

[8] = tested on: CHO cells; experiment: In vitro transfection of CHO cells with DNA-PEI plus disaccharides, GFP by flow cytometer; format: cell-based, Chinese hamster; settings: PEI to DNA charge ratio 9:1
Source text: In the following experiments, a polyethyleneimine (PEI)-based vector is used to perform cell transfection. Further, various disaccharides are incorporated into the transfection reagent containing DNA and the vector, and the effects of disaccharides on cell transfection are observed.
as §1

[9] = tested on: CHO cells; experiment: MTT cellular viability of CHO cells transfected with lipid-based carriers plus disaccharides; settings: DOTAP, DOTAP/Chol, DOTAP/DOPE or LPD vector; nontransfected CHO cells = 100%
Source text: as §3

[10] = tested on: COS-7 cells; experiment: DNA-PEI transfection with trehalose, GFP expression percentage, COS-7; format: cell-based; settings: 180 mM trehalose
Source text: as §1, §2

[11] = tested on: 293 cells; experiment: DNA-PEI transfection with trehalose, GFP expression percentage, 293; format: cell-based; settings: 180 mM trehalose
Source text: as §1, §2

[12] = tested on: CHO cells; experiment: MTT cellular viability of CHO cells transfected with DNA-PEI complexes plus trehalose; format: cell-based, Chinese hamster; settings: PEI to DNA charge ratio 9:1; nontransfected CHO cells = 100%
Source text: The x-axis in FIG. 5 represents different trehalose concentrations and the y-axis represents cellular viability analyzed by the MTT assay. In the experiments, the PEI to DNA charge ratio in the transfection reagent is maintained at 9:1, and the viability of nontransfected CHO cells is set at 100%. […] In other words, the incorporation of trehalose mitigates the toxic effect of the transfection reagent.

[13] = tested on: B16F10; experiment: DNA-PEI transfection with trehalose, GFP expression percentage, B16F10; format: cell-based; settings: 20 mM trehalose
Source text: as §1, §2

[14] = DOTAP liposomes, i.v. tail vein, 24 hour, 180 mM disaccharide
[15] = DOTAP liposomes, i.v. tail vein, 24 hour, 330 mM disaccharide

Compound | effect on transfection efficiency (GFP-positive percentage) [1] | cellular viability analyzed by the MTT assay [2] | effect on transfection efficiency [3] | luminescent intensity (RLU per mg of muscular tissue protein) versus control group without disaccharides ([4]; naked plasmid) | effect on transfection efficiency (luminescent intensity, lung) ([5]; 330 mM disaccharide) | luminescent intensity in the lung tissue (RLU per mg of lung tissue protein) [5, 14] | luminescent intensity in the lung tissue (RLU per mg of lung tissue protein) [5, 15] | also measured
OC[C@H]1O[C@@H](O[C@H]2[C@H](O)[C@@H](O)C(O)O[C@@H]2CO)[C@H](O)[C@@H](O)[C@H]1O (stereo partly drawn) [lactose] | significantly enhances the transfection efficiency | improve the cellular viabilities | increases significantly | higher luminescent intensity |  |  |  | 
O=C[C@H](O)[C@@H](O)[C@H](O[C@@H]1O[C@H](CO)[C@@H](O)[C@H](O)[C@H]1O)[C@H](O)CO [cellobiose] | significantly enhances the transfection efficiency | improve the cellular viabilities | increases significantly |  | significant increase in transfection efficiency | increase the luminescent intensity significantly | increases noticeably | change of transfection efficiency ([3]; 120 mM cellobiose): doubled; increase of luciferase expression of lung [5, 15]: more than 10 fold
OC[C@H]1O[C@H](O[C@H]2O[C@H](CO)[C@@H](O)[C@H](O)[C@H]2O)[C@H](O)[C@@H](O)[C@@H]1O [trehalose] | significantly enhances the transfection efficiency |  | increases significantly | higher luminescent intensity | significant increase in transfection efficiency | increase the luminescent intensity significantly | increases noticeably | enhancement of percentage of GFP positive cells [6]: ~13%; enhancement of percentage of GFP positive cells [7]: about 50%; effect on GFP expression percentage (transfection efficiency) [8]: significantly increases the GFP expression percentage; GFP expression percentage ([8]; 180 mM trehalose): about 20%; GFP expression percentage relative to absence of disaccharides ([8]; 180 mM trehalose): about one fold higher; cellular viability analyzed by the MTT assay [9]: improve the cellular viabilities; enhancement of percentage of GFP expressed cells [10]: 37%; enhancement of percentage of GFP expressed cells [11]: 32%; duration of transgene expression (muscle luminescence over days after injection) ([4]; naked gWiz-luciferase plasmid): higher luminescence intensities for a longer period of time; transfection efficiency versus control group without trehalose at the same amount of plasmid DNA ([4]; naked plasmid, 10 mM trehalose): significantly higher; effect of trehalose concentration on transfection efficiency (muscle luminescent intensity) ([4]; naked plasmid, trehalose between about 10 mM to 12.5 mM): increases significantly; cellular viability analyzed by the MTT assay [12]: increases the cellular viability; enhancement of percentage of GFP positive cells [13]: ~42%
OC[C@H]1O[C@H](O[C@H]2[C@H](O)[C@@H](O)[C@H](O)O[C@@H]2CO)[C@H](O)[C@@H](O)[C@@H]1O [maltose] |  | improve the cellular viabilities | increases significantly |  |  |  |  | 
OC[C@H]1O[C@@](CO)(O[C@H]2O[C@H](CO)[C@@H](O)[C@H](O)[C@H]2O)[C@@H](O)[C@@H]1O [sucrose] | significantly enhances the transfection efficiency | improve the cellular viabilities | increases significantly |  |  |  |  | 
